# Results published in PMC12673148, “Structural basis of protease-activated receptor 2 activation and biased agonism” (Cell Discovery, 2025).
# Read-outs that look alike come from different tables or passages of the source.
# B1: NE: neutrophil elastase, protease cleaving PAR2 between S67↓V68 (protein, UniProt P08246 30-267, looked up)
# Neutrophil elastase: IVGGRRARPHAWPFMVSLQLRGGHFCGATLIAPNFVMSAAHCVANVNVRAVRVVLGAHNLSRREPTRQVFAVQRIFENGYDPVNLLNDIVILQLNGSATINANVQVAQLPAQGRRLGNGVQCLAMGWGLLGRNRGIASVLQELNVTVVTSLCRRSNVCTLVRGRQAGVCFGDSGSPLVCNGLIHGIASFVRGGCASGLYPDAFAPVAQFVNWIDSIIQRSEDNPCPHPRDPDPASRTH
# Columns and labels:
# PAR2 [1] = conditions: cited from earlier work; for PAR2 activation: synthetic peptides mimicking the TL
# From the text: We used the N-terminal deletion construct of PAR2 (Δ1–48) as the backbone of the receptor to support downstream signaling, as it has lower intrinsic activity than the FL receptor does (Supplementary Fig. S1a).
# PAR2 [2] = conditions: cited from earlier work
# PAR2 [3] = conditions: cited from earlier work; remark: listed apart in the source
# PAR2 (Gq signaling) [4] = experiment: BRET0 assay, tricistronic Gq sensor, ligand-induced; assay type: cell-based, human
# Experimental: (§1) To measure the self-activation of WT and mutant PAR2 in response to G protein activity, a tricistronic activity sensor assay was performed as previously described. The G protein sensor plasmids were obtained from Addgene (https://addgene.org/Gunnar_Schulte/). To measure constitutive activity, AD293 cells in 6-well plates were cotransfected with 500 ng of WT or mutant PAR2 and 500 ng of the G protein sensor construct (pcDNA-Gα-Nluc/Gβ3/cpVenus-Gγ9 fusion combination) with Lipofectamine 2000 (Invitrogen). After being incubated for 24 h at 37 °C in a 5% CO2 atmosphere, the transfected cells were seeded into white 96-well plates and grown for another 24 h. The cells were subsequently washed with HBSS and incubated with a 1:1000 dilution of furimazine stock solution. After incubation for 3 min at 37 °C, the BRET ratio was measured twice consecutively to assess constitutive receptor activity using an EnVision multimode plate reader (PerkinElmer). Nluc emission intensity was selected using a 450/40-nm monochromator, and cpVenus^173 emission was selected using a 535/30-nm monochromator with an integration time of 0.3 s in both channels. The ratio of cpVenus/Nluc intensity was calculated for each well and normalized to that of the vehicle control.
# (§2) For ligand-induced BRET0 measurements, transfected cells were plated in 96-well plates for 24 h, after which the cells were washed with HBSS and incubated with a 1:1000 dilution of furimazine stock solution. After being incubated for 3 min at 37 °C, the cells were treated with the addition of ligand solutions or vehicle control. Plates were then subjected to BRET measurements with an EnVision plate reader (PerkinElmer) at 450/40-nm (Nluc-furimazine) and 535/30-nm to detect ligand-induced changes in the BRET signal. Like in the BRET2 assay, the BRET signal was calculated by the ratio of the intensity at 535 nm (cpVenus) to that at 450 nm (Nluc), and the Δnet BRET ratio was calculated by subtracting the intensity of the vehicle control from that of each experimental well. […]
# PAR2 (G13 signaling) [5] = experiment: BRET0 assay, tricistronic G13 sensor, ligand-induced; assay type: cell-based, human
# Experimental: as §1, §2
# PAR2 (Gi signaling) = experiment: BRET0 assay, Gi sensor, ligand-induced; assay type: cell-based, human; conditions: AD293 cells, full-length (FL) PAR2, Fig. S1b
# Experimental: as §1, with “The cells were subsequently washed with HBSS and incubated with a 1:1000 dilution of furimazine stock solution.” left out, “Nluc emission intensity was selected using a 450/40-nm monochromator, and cpVenus^173 emission was selected using a 535/30-nm monochromator with an integration time of 0.3 s in both channels.” left out
# (§3) For ligand-induced BRET0 measurements, transfected cells were plated in 96-well plates for 24 h, after which the cells were washed with HBSS and incubated with a 1:1000 dilution of furimazine stock solution. […] Plates were then subjected to BRET measurements with an EnVision plate reader (PerkinElmer) at 450/40-nm (Nluc-furimazine) and 535/30-nm to detect ligand-induced changes in the BRET signal. […]
# PAR2 (Gs signaling) [6] = experiment: BRET0 assay, Gs sensor, ligand-induced; assay type: cell-based, human; conditions: AD293 cells, full-length (FL) PAR2, Fig. S1b
# Experimental: as §1, with “The cells were subsequently washed with HBSS and incubated with a 1:1000 dilution of furimazine stock solution.” left out, “Nluc emission intensity was selected using a 450/40-nm monochromator, and cpVenus^173 emission was selected using a 535/30-nm monochromator with an integration time of 0.3 s in both channels.” left out
# as §3
# PAR2 (Gs signaling) [7] = conditions: full-length (FL) PAR2; cited from earlier work
# From the text: To mimic trypsin cleavage of PAR2 between R36 and S37, we removed residues 2–36 of PAR2 and allowed native methionine aminopeptidase (MAP) to remove the N-terminal methionine residue via a process termed N-terminal methionine processing that occurs naturally across prokaryotes and eukaryotes. We employed a bioluminescence resonance energy transfer (BRET) assay consisting of G protein-based tricistronic activity sensors (BRET0)[17] to quantitatively assess the constitutive activity of GPCR. This approach allowed us to measure the intrinsic activity of the PAR2 constructs. Compared with the ...
# PAR2 (G13 signaling) [8] = experiment: BRET2 G13 dissociation assay; assay type: cell-based, human
# Experimental: (§4) In accordance with previous methods, AD293 cells were plated in 6-well plates at 700,000–800,000 cells per well. After 1 day of growth at 37 °C with 5% CO2, the cells in each well were transfected with 100 ng of pcDNA3-PAR2 (Δ1–48) WT or mutants, 100 ng of Gα-RLuc8, 100 ng of Gβ, and 100 ng of Gγ-green fluorescent protein (Gγ-GFP) plasmids with Lipofectamine 2000 (Thermo Fisher Scientific). After being incubated for 1 day, the cells were collected, pelleted by centrifugation, and suspended in DMEM supplemented with 5% (v/v) FBS. The cell suspensions were dispensed in white 96-well plates at a density of 25,000–50,000 cells per well. One day after being plated, the growth medium was carefully aspirated and replaced immediately with 60 μL of 1× Hank’s balanced salt solution (HBSS) containing 20 mM HEPES (pH 7.4; assay buffer), followed by the addition of 10 μL of freshly prepared 50 μM coelenterazine 400a (Yeasen). After a 5-min equilibration period, the cells were treated with 30 μL of drug for an additional 5 min. The plates were then measured in an EnVision plate reader (PerkinElmer) with 395 nm (RLuc8-coelenterazine 400a) and 510 nm (GFP2) emission filters with integration times of 1 s. The BRET signal was calculated by the ratio of the luminescence intensity at 510 nm (GFP) to that at 395 nm (RLuc), and the Δnet BRET ratio was calculated by subtracting the luminescence intensity of the vehicle control from that of each experimental well (510 nm/395 nm). The data were subsequently plotted as a four-parameter sigmoidal concentration–response curve in GraphPad Prism 8.
# PAR2 (Gq signaling) [9] = experiment: BRET2 Gq dissociation assay; assay type: cell-based, human
# Experimental: as §4
# PAR2 (Gq signaling) [10] = experiment: NanoBiT G protein dissociation assay, Gq; assay type: cell-based, human; conditions: mean ± SD
# Experimental: (§5) Ligand-induced G protein activation was measured by a NanoBiT G protein dissociation assay, as described previously[11],[41]. Briefly, AD293 cells cultured in 6-well plates were transfected with plasmids encoding a large fragment (LgBiT)-containing Gαq or Gα13 subunit (100 ng), a small fragment (SmBiT)-fused Gβ1 subunit (500 ng), and the untagged Gγ2 subunit with a C68S mutation (500 ng) in combination with the WT PAR2 construct (200 ng). After being incubated for 1 day, the transfected cells were collected, pelleted by centrifugation, and suspended in HBSS containing 0.01% bovine serum albumin (Solarbio) and 5 mM HEPES (pH 7.4; assay buffer). The cell suspension was dispensed in white 96-well plates at a volume of 80 μL per well and mixed with 20 μL of 50 μM coelenterazine native (BIOSTNTH). After incubation for 2 h at RT, the baseline luminescence was measured, after which 20 μL of test compound (6×) was added, and subsequent luminescence measurements were performed to detect ligand-induced changes. Luminescence intensity measured from 3 min to 5 min after compound addition was normalized to the initial intensity, and the net luminescence was calculated by subtracting the luminescence ratio of the vehicle control from the normalized luminescence per well. The G protein dissociation signals were fitted to a four-parameter sigmoidal concentration–response curve (GraphPad Prism 8).
# PAR2 (G13 signaling) [11] = experiment: NanoBiT G protein dissociation assay, G13; assay type: cell-based, human; conditions: mean ± SD
# Experimental: as §5
# [12] = AD293 cells, full-length (FL) PAR2, Fig. S1b
# [13] = PAR2 (Δ1–48) D62A, AD293 cells, mean ± SD, n = 3, Fig. 5b
# [14] = PAR2 D62A, AD293 cells, n = 3, Fig. S5a
# [15] = BRET0, AD293 cells, mean ± SD, n = 3, Fig. S5b
# [16] = PAR2 (Δ1–48) WT, AD293 cells, mean ± SD, n = 3, Fig. 5g
# [17] = summary statement, assay not named (BRET2, BRET0, NanoBiT used)
molecule,measurement,setting,value
2-furoyl-LIGRL-NH2,PAR2 activation,PAR2 [1],activating the receptor independently of protease cleavage
2f-LAAAAI-NH2 [DF253],PAR2-mediated Ca2+ release,PAR2 [2],trigger PAR2-mediated Ca^2+ release
same,ERK1/2 phosphorylation,PAR2 [3],without inducing ERK1/2 phosphorylation
C/C(=N\NC(=O)[C@H]1C(=O)NC[C@@H]1c1ccccc1)c1cccc(Br)c1 [AC264613],PAR2 agonism,PAR2 [1]; reference not given,potent PAR2-selective agonist
CC[C@H](C)[C@H](NC(=O)[C@H](CC1CCCCC1)NC(=O)c1ccno1)C(=O)N1CCC2(C=Cc3ccccc32)CC1 [GB88],PAR2 agonism,PAR2 [1],partial PAR2 agonist
Isox-Cha-Chg-Chg-A-R-NH2 [AY254],ERK1/2 phosphorylation,PAR2 [3],ERK-biased agonist
SLAGRL-NH2,efficacy,PAR2 [1],significantly lower efficacy
"SLIGKV [SLIGKV (TL), tethered ligand peptide of human PAR2]",Gq signaling activation,PAR2 (Gq signaling) [4]; [12],activated
same,G13 signaling activation,PAR2 (G13 signaling) [5]; [12],activated
same,Gi signaling activation,PAR2 (Gi signaling),activated
same,Gs signaling activation,PAR2 (Gs signaling) [6],had no effect on Gs signaling
same,Gs signaling induction,PAR2 (Gs signaling) [7],incapable of inducing Gs signaling
SLIGKV-NH2 [human tethered-ligand synthetic peptide],PAR2 activation,PAR2 [1],activating the receptor independently of protease cleavage
SLIGRL-NH2 [mouse tethered-ligand peptide used as synthetic WT peptide],"Gq versus G13 bias, D62A mutant","PAR2 (Gq signaling) [4]; PAR2 D62A, AD293 cells, BRET0, mean ± SD, n = 3, Fig. S5a",clearly biased toward Gq signaling
same,"G13 activity, D62A mutant","PAR2 (G13 signaling) [5]; PAR2 D62A, AD293 cells, mean ± SD, n = 3, Fig. S5a",minimal G13 activity
same,"G13 activity, D62A mutant",PAR2 (G13 signaling) [8]; [13],almost completely abolished G13 activity
same,"G13 receptor activity, D228A mutant","PAR2 (G13 signaling) [8]; PAR2 (Δ1–48) D228A, AD293 cells, mean ± SD, n = 3, Fig. 2c",strongly decreased receptor activity
same,"G13 receptor activity, H227A mutant","PAR2 (G13 signaling) [8]; PAR2 (Δ1–48) H227A, AD293 cells, mean ± SD, n = 3, Fig. S3h",decreased receptor activity
same,"G13 receptor activity, H310A mutant","PAR2 (G13 signaling) [8]; PAR2 (Δ1–48) H310A, AD293 cells, mean ± SD, n = 3, Fig. 2c",strongly decreased receptor activity
same,"G13 receptor activity, L230A mutant","PAR2 (G13 signaling) [8]; PAR2 (Δ1–48) L230A, AD293 cells, mean ± SD, n = 3, Fig. 2c",strongly decreased receptor activity
same,"G13 receptor activity, P231A mutant","PAR2 (G13 signaling) [8]; PAR2 (Δ1–48) P231A, AD293 cells, mean ± SD, n = 3, Fig. 2c",strongly decreased receptor activity
same,"G13 receptor activity, V229A mutant","PAR2 (G13 signaling) [8]; PAR2 (Δ1–48) V229A, AD293 cells, mean ± SD, n = 3, Fig. S3h",decreased receptor activity
same,"G13 receptor activity, Y311A mutant","PAR2 (G13 signaling) [8]; PAR2 (Δ1–48) Y311A, AD293 cells, mean ± SD, n = 3, Fig. 2c",strongly decreased receptor activity
same,"G13 receptor activity, Y323A mutant","PAR2 (G13 signaling) [8]; PAR2 (Δ1–48) Y323A, AD293 cells, mean ± SD, n = 3, Fig. 2c",strongly decreased receptor activity
same,"Gq activity, D62A mutant",PAR2 (Gq signaling) [9]; [13],only had a minor effect on Gq activity
same,"Gq versus G13 bias, D62A mutant",PAR2 (Gq signaling) [10]; [14],clearly biased toward Gq signaling
same,"G13 activity, D62A mutant",PAR2 (G13 signaling) [11]; [14],minimal G13 activity
same,inducing activity versus human ligand SLIGKV-NH2,PAR2 [1],much higher inducing activity than the human ligand
same,PAR2 activation,PAR2 [1],activating the receptor independently of protease cleavage
SLVGRL-NH2 [synthetic peptide with valine at third TL residue; Gq-biased ligand],Gq versus G13 bias,PAR2 (Gq signaling) [4]; [15],strong bias toward Gq signaling
same,G13 activity,PAR2 (G13 signaling) [5]; [15],minimal G13 activity
same,G13 activity relative to WT peptide,PAR2 (G13 signaling) [8]; [16],lost most of the G13 activity
same,G13 signaling (discussion summary),PAR2 (G13 signaling) [8]; [17],minimal effect on G13 signaling
same,Gq activity relative to WT peptide,PAR2 (Gq signaling) [9]; [16],maintained most of the Gq activity of the WT peptide
same,Gq signaling (discussion summary),PAR2 (Gq signaling) [9]; [17],predominantly activates Gq signaling
same,Gq versus G13 bias,"PAR2 (Gq signaling) [10]; WT PAR2, AD293 cells, n = 3, Fig. S5b",strong bias toward Gq signaling
same,G13 activity,"PAR2 (G13 signaling) [11]; NanoBiT, WT PAR2, AD293 cells, n = 3, Fig. S5b",minimal G13 activity
B1,Ca2+ release on PAR2 cleavage,PAR2 [2]; cleavage at E56↓T57 (CS) or S67↓V68 (NE),not Ca^2+ release
same,ERK1/2 activation on PAR2 cleavage,PAR2 [3]; cleavage at S67↓V68,activates ERK1/2
